# Legend:
# [1] = system: 32D-mpl cells; conditions: concentration 1-30 uM
# Protocol: (§1) 32D-mpl cells express Tpo-R and their survival is dependent on the presence of TPO. […] In this assay, purified human CD34+ progenitor cells were incubated in liquid culture with test compounds for 10 days and the number of cells expressing the transmembrane glycoprotein CD41 (gpIIb), a megakaryocytic marker, was then measured by flow cytometry (see Cwirla, S. E. et al Science, 1997, 276, 1696-1699).
# [2] = system: purified human CD34+ progenitor cells; conditions: concentrations 1-30 uM; 10 days liquid culture, CD41 by flow cytometry
# Protocol: as §1
compound,measurement,setting,value
"Cl.Cl.Cl.Cl.Cl.Cl.Cl.Cl.O.O.c1cc(CN2CCCNCCNCCCNCC2)ccc1CN1CCCNCCNCCCNCC1 [Example 1, 1,1′-[1,4-Phenylenebis(methylene)]bis[1,4.8,11-tetraazacyclotetradecane]octahydrochloride Dihydrate]",proliferation of 32D-mpl cells,[1],promoted the proliferation
same,activity in the CD41 megakaryocytic assay,[2],showed activity

# From US6498155B1, “Methods of treating thrombocytopenia” (SmithKline Beecham Corporation, priority 1998, dated 2002)
